Measured values from ChEMBL document CHEMBL1671662, “In vitro activities of telavancin and six comparator agents against anaerobic bacterial isolates” (2009).

Assays:
Assay type in all cases: functional
Anaerococcus prevotii = experiment: Antibacterial activity against Anaerococcus prevotii by CLSI M11-A6 agar dilution method in presence of beta-lactamase inhibitor Sulbactam
Clostridium tertium = experiment: Antibacterial activity against Clostridium tertium by CLSI M11-A6 agar dilution method in presence of beta-lactamase inhibitor Sulbactam
Prevotella disiens = experiment: Antibacterial activity against Prevotella disiens by CLSI M11-A6 agar dilution method in presence of beta-lactamase inhibitor Sulbactam
Holdemania filiformis = experiment: Antibacterial activity against Holdemania filiformis by CLSI M11-A6 agar dilution method in presence of beta-lactamase inhibitor Sulbactam
Clostridium disporicum = experiment: Antibacterial activity against Clostridium disporicum by CLSI M11-A6 agar dilution method in presence of beta-lactamase inhibitor Sulbactam
Prevotella bivia = experiment: Antibacterial activity against Prevotella bivia by CLSI M11-A6 agar dilution method in presence of beta-lactamase inhibitor Sulbactam
Bacteroides ovatus = experiment: Antibacterial activity against Bacteroides ovatus by CLSI M11-A6 agar dilution method in presence of beta-lactamase inhibitor Sulbactam
Parvimonas micra = experiment: Antibacterial activity against Peptostreptococcus micros by CLSI M11-A6 agar dilution method in presence of beta-lactamase inhibitor Sulbactam
Bifidobacterium dentium = experiment: Antibacterial activity against Bifidobacterium dentium by CLSI M11-A6 agar dilution method in presence of beta-lactamase inhibitor Sulbactam
[1] = system: Bifidobacterium adolescentis; experiment: Antibacterial activity against Bifidobacterium adolescentis by CLSI M11-A6 agar dilution method in presence of beta-lactamase inhibitor Sulbactam
Prevotella intermedia = experiment: Antibacterial activity against Prevotella intermedia by CLSI M11-A6 agar dilution method in presence of beta-lactamase inhibitor Sulbactam
Odoribacter splanchnicus = experiment: Antibacterial activity against Bacteroides splanchnicus by CLSI M11-A6 agar dilution method in presence of beta-lactamase inhibitor Sulbactam
Finegoldia magna = experiment: Antibacterial activity against Finegoldia magna by CLSI M11-A6 agar dilution method in presence of beta-lactamase inhibitor Sulbactam
Clostridium glycolicum = experiment: Antibacterial activity against Clostridium glycolicum by CLSI M11-A6 agar dilution method in presence of beta-lactamase inhibitor Sulbactam; settings: Terrisporobacter glycolicus
[2] = system: Bacteroides thetaiotaomicron; experiment: Antibacterial activity against Bacteroides thetaiotaomicron by CLSI M11-A6 agar dilution method in presence of beta-lactamase inhibitor Sulbactam
Prevotella denticola = experiment: Antibacterial activity against Prevotella denticola by CLSI M11-A6 agar dilution method in presence of beta-lactamase inhibitor Sulbactam
[3] = system: Sutterella wadsworthensis; experiment: Antibacterial activity against Sutterella wadsworthensis by CLSI M11-A6 agar dilution method in presence of beta-lactamase inhibitor Sulbactam
[4] = system: Clostridium sporosphaeroides; experiment: Antibacterial activity against Clostridium sporosphaeroides by CLSI M11-A6 agar dilution method in presence of beta-lactamase inhibitor Sulbactam; settings: Faecalispora sporosphaeroides
[5] = system: Parabacteroides distasonis; experiment: Antibacterial activity against Parabacteroides distasonis by CLSI M11-A6 agar dilution method in presence of beta-lactamase inhibitor Sulbactam
Phocaeicola vulgatus = experiment: Antibacterial activity against Bacteroides vulgatus by CLSI M11-A6 agar dilution method in presence of beta-lactamase inhibitor Sulbactam
Thomasclavelia ramosa = experiment: Antibacterial activity against Clostridium ramosum by CLSI M11-A6 agar dilution method in presence of beta-lactamase inhibitor Sulbactam
Bifidobacterium longum = experiment: Antibacterial activity against Bifidobacterium longum by CLSI M11-A6 agar dilution method in presence of beta-lactamase inhibitor Sulbactam
[6] = system: Streptococcus intermedius; experiment: Antibacterial activity against Streptococcus intermedius by CLSI M11-A6 agar dilution method in presence of beta-lactamase inhibitor Sulbactam
Fusobacterium varium = experiment: Antibacterial activity against Fusobacterium varium by CLSI M11-A6 agar dilution method in presence of beta-lactamase inhibitor Sulbactam
Blautia producta = experiment: Antibacterial activity against Ruminococcus productus by CLSI M11-A6 agar dilution method in presence of beta-lactamase inhibitor Sulbactam
[Clostridium] innocuum = Antibacterial activity against Clostridium innocuum by CLSI M11-A6 agar dilution method in presence of beta-lactamase inhibitor Sulbactam
[7] = system: Catenibacterium mitsuokai; experiment: Antibacterial activity against Catenibacterium mitsuokai by CLSI M11-A6 agar dilution method in presence of beta-lactamase inhibitor Sulbactam
[8] = system: Ruminococcus flavefaciens; experiment: Antibacterial activity against Ruminococcus flavefaciens by CLSI M11-A6 agar dilution method in presence of beta-lactamase inhibitor Sulbactam
Bifidobacterium bifidum = experiment: Antibacterial activity against Bifidobacterium bifidum by CLSI M11-A6 agar dilution method in presence of beta-lactamase inhibitor Sulbactam
Eggerthella lenta = experiment: Antibacterial activity against Eggerthella lenta by CLSI M11-A6 agar dilution method in presence of beta-lactamase inhibitor Sulbactam
Bifidobacterium breve = experiment: Antibacterial activity against Bifidobacterium breve by CLSI M11-A6 agar dilution method in presence of beta-lactamase inhibitor Sulbactam
Bilophila wadsworthia = experiment: Antibacterial activity against Bilophila wadsworthia by CLSI M11-A6 agar dilution method in presence of beta-lactamase inhibitor Sulbactam
[9] = system: Clostridium paraputrificum; experiment: Antibacterial activity against Clostridium paraputrificum by CLSI M11-A6 agar dilution method in presence of beta-lactamase inhibitor Sulbactam
Streptococcus anginosus = experiment: Antibacterial activity against Streptococcus anginosus by CLSI M11-A6 agar dilution method in presence of beta-lactamase inhibitor Sulbactam
Ruminococcus albus = experiment: Antibacterial activity against Ruminococcus albus by CLSI M11-A6 agar dilution method in presence of beta-lactamase inhibitor Sulbactam; settings: Hominimerdicola alba

## CC1(C)S[C@@H]2[C@H](NC(=O)[C@H](N)c3ccccc3)C(=O)N2[C@H]1C(=O)O [AMPICILLIN]
Anaerococcus prevotii
  MIC50: 0.25 µg/mL
  MIC90: 0.5 µg/mL
Clostridium tertium
  MIC50: 0.25 µg/mL
  MIC90: 1 µg/mL
Prevotella disiens
  MIC50: ≤ 0.12 µg/mL
  MIC90: 2 µg/mL
Holdemania filiformis
  MIC50: 0.25 µg/mL
  MIC90: 1 µg/mL
Clostridium disporicum
  MIC50: 0.25 µg/mL
  MIC90: 1 µg/mL
Prevotella bivia
  MIC50: ≤ 0.12 µg/mL
  MIC90: 2 µg/mL
Bacteroides ovatus
  MIC50: 2 µg/mL
  MIC90: 4 µg/mL
Parvimonas micra
  MIC50: 0.25 µg/mL
  MIC90: 0.5 µg/mL
Bifidobacterium dentium
  MIC50: 0.25 µg/mL
  MIC90: 1 µg/mL
[1]
  MIC50: 0.25 µg/mL
  MIC90: 1 µg/mL
Prevotella intermedia
  MIC50: ≤ 0.12 µg/mL
  MIC90: 2 µg/mL
Odoribacter splanchnicus
  MIC: 1 µg/mL
  MIC50: 1 µg/mL
  MIC90: 4 µg/mL
Finegoldia magna
  MIC50: 0.25 µg/mL
  MIC90: 0.5 µg/mL
Clostridium glycolicum
  MIC50: 0.25 µg/mL
  MIC90: 1 µg/mL
[2]
  MIC50: 4 µg/mL
  MIC90: 16 µg/mL
Prevotella denticola
  MIC50: ≤ 0.12 µg/mL
  MIC90: 2 µg/mL
[3]
  MIC: 0.25 µg/mL
[4]
  MIC50: 0.25 µg/mL
  MIC90: 1 µg/mL
[5]
  MIC50: 8 µg/mL
  MIC90: 32 µg/mL
Phocaeicola vulgatus
  MIC50: 8 µg/mL
  MIC90: 16 µg/mL
Thomasclavelia ramosa
  MIC50: ≤ 0.12 µg/mL
  MIC90: 0.5 µg/mL
Bifidobacterium longum
  MIC50: 0.25 µg/mL
  MIC90: 1 µg/mL
[6]
  MIC50: 0.5 µg/mL
  MIC90: 0.5 µg/mL
Fusobacterium varium
  MIC50: 2 µg/mL
  MIC90: 16 µg/mL
Blautia producta
  MIC50: ≤ 0.12 µg/mL
  MIC90: 1 µg/mL
[Clostridium] innocuum
  MIC50: 0.5 µg/mL
  MIC90: 0.5 µg/mL
[7]
  MIC50: 0.25 µg/mL
  MIC90: 1 µg/mL
[8]
  MIC50: ≤ 0.12 µg/mL
  MIC90: 1 µg/mL
Bifidobacterium bifidum
  MIC50: 0.25 µg/mL
  MIC90: 1 µg/mL
Eggerthella lenta
  MIC50: 0.25 µg/mL
  MIC90: 1 µg/mL
Bifidobacterium breve
  MIC50: 0.25 µg/mL
  MIC90: 1 µg/mL
Bilophila wadsworthia
  MIC50: 2 µg/mL
  MIC90: 4 µg/mL
[9]
  MIC50: 0.25 µg/mL
  MIC90: 1 µg/mL
Streptococcus anginosus
  MIC50: 0.5 µg/mL
  MIC90: 0.5 µg/mL
Ruminococcus albus
  MIC50: ≤ 0.12 µg/mL
  MIC90: 1 µg/mL
